# Assay results taken from a melting point compilation (Tetko et al.; mined from patent text by program, amines drawn as free bases though some values may be those of a salt).
row,Structure (SMILES),melting point
1,O=C(c1ccc(Br)cc1)c1cc(Br)c(C(=O)c2ccc(Br)cc2)cc1Br,254 to 256 °C
2,Cc1cc(C#N)nc(Oc2cc(C(F)(F)F)nn2C)c1,88 °C
3,Oc1ccc(C#Cc2ccccc2)cc1,83 to 84 °C
4,CCOC(=O)c1c(C(C)C)nn(-c2ccccc2)c1-c1ccc(F)cc1,92 to 93 °C
5,CCOC(=O)c1cn(CCC(C)C)c2nn(C)cc2c1=O,105 to 106 °C
6,CC(C)(C)OC(=O)N1CCN(Cc2ccccc2)C[C@H]1C(c1ccccc1)c1ccccc1,108 to 109 °C
7,CC(C)CCN1C(=O)C(NC(=O)Oc2cccc(N(C)C)c2)C(=O)N(c2ccccc2)c2cc(Cl)c(Cl)cc21 (stereo not drawn),163 to 164 °C
8,O=C(O)c1cc([N+](=O)[O-])c(Nc2ccccc2)c(S(=O)(=O)Nc2ccccc2)c1,249 to 250 °C
9,CC(C)(O)Cn1c(CCO)nc2c(N)nc3cccnc3c21,194 to 195 °C
10,CCc1noc(-c2cn(-c3cccnc3)cn2)n1,152 to 153 °C
11,O=C1C[C@@H](COS(=O)(=O)c2ccccc2)N1,102 to 105 °C
12,O=S(=O)(Cc1ccccc1)c1nc[nH]n1,160 to 162 °C
13,CC(C)NC1=NS(=O)(=O)c2ccc(CC(N)=O)cc2N1,321 to 325 °C
14,CCCN(c1ncnc2c1ncn2C1OC(CO)C(O)C1O)n1cccc1 (stereo not drawn),136 to 138 °C
15,O=C1c2ccccc2C(=O)N1OCCCN1CCN(c2ccc3ccccc3n2)CC1,158 to 160 °C
16,Cc1nc(CO)c2n1-c1ccc(Cl)cc1C(c1ccccc1F)=NC2,233 to 235 °C
17,c1ccc2c(c1)NC(C1CCCCC1)c1cccc3c1N2CC3 (stereo not drawn),136 to 138 °C
18,CC(C)(C)OC(=O)NC(Cc1ccc(OCc2ccccc2)cc1)CN1CCOCC1 (stereo not drawn),98 to 99 °C
19,Cc1ccc(CCCO)c(NCc2ccc3nc(NCCCN4CCOCC4)n(Cc4cccc5c4ncn5C)c3c2)c1,198 °C
20,CCc1nc2c(cnn2CC)c(NC2CCOCC2)c1CNC(=O)c1cccc(C(=O)NCc2ccc(Cl)c(-c3cccc(CN4CCCNCC4)c3)c2)c1,116 to 119 °C
21,Cc1cc(SCCc2ccc(-c3ccc(C(F)(F)F)cc3)cc2)ccc1OCC(=O)O,132 to 134 °C
22,COc1nc(OC)c(C(C)C)c(C(=O)c2cc(C)cc(Br)c2)n1,122 to 123 °C
23,N#Cc1ccc(CNC(=O)Cc2ccc(O)cc2)cc1,176 to 178 °C
24,COCc1nc2nccnc2c(=O)n1C,130 to 132 °C
25,O=C(N[C@@H](CSC(=O)OCc1ccccc1)C(=O)O)OCc1ccccc1,93 to 94 °C

row,Structure (SMILES),melting point
1,O=C(NC1N=C(c2ccccc2F)c2ccccc2-n2cnnc21)OCc1ccccc1 (stereo not drawn),123 °C
2,CCN(CC)CCSCC(=O)c1ccc2[nH]c3ncc(Cl)cc3c2c1,137 to 138 °C
3,N#CC1CN1C(=O)CNC(N)=O (stereo not drawn),110 to 114 °C
4,N[C@@]1(C(=O)O)C[C@H](NC(=O)Nc2cccc(F)c2)[C@H]2[C@H](C(=O)O)[C@H]21 (relative stereo),> 250 °C
5,O=C(O)/C=C/c1ccc(C(=C2CCCCCC2)c2ccc(O)c(F)c2)cc1,164 to 165 °C
6,Oc1cc2c(c3c1CC=CC3)Nc1ccccc1S2,166 °C
7,CSC1CCN(C(=O)CCSC(C)=O)C1C(=O)O (stereo not drawn),153 to 157 °C
8,COc1ccc(N2CCN(c3c(C)c(C)c4c(c3C)C(CCc3ccccc3)C(C)(C)O4)CC2)cc1 (stereo not drawn),92 to 94 °C
9,C1COCCOCCNCCOCCOCCOCCN1,0 °C
10,COc1ccc(CCOc2cncc(-c3cccc(C(=O)O)c3)c2)cc1OC,181 to 182 °C
11,CC(C)(C)NC(=O)[C@@H]1[C@H](O)CCN1C(=O)[C@@H](O)[C@H](Cc1ccccc1)NC(=O)[C@H](CC(N)=O)NC(=O)OCc1ccccc1,109 to 112 °C
12,CCOc1ccc2cc(-c3nc(-c4ccccc4)no3)c(=O)oc2c1,229 °C
13,COc1cc(O)c(C(=O)CCc2ccc3occc3c2)cc1C(O)C1OC(C(=O)C(C)C(=O)O)C(O)C(O)C1O (stereo not drawn),113 to 114 °C
14,COCCOc1cc2c(Nc3cc(OC)c(Cl)cc3Cl)c(C#N)cnc2cc1OCC1CCN(C)CC1,153 to 155 °C
15,Cc1cc(NC(=S)NC(=O)c2ccccc2Cl)ccc1-n1cccc1,134 to 136 °C
16,COc1ccc(C2(c3cccc(C(Cc4ccccc4)Cc4ccccc4)n3)OCCCO2)cc1OC,124 °C
17,CCc1cc(C(C)=O)c(O)cc1OCc1cccc(C(=O)O)c1,161 to 164 °C
18,CCCOc1ncc2c(=O)[nH]c(-c3ccccc3OCCC)nc2n1,157 to 158 °C
19,COc1cccc(Cc2cc(-c3ccccc3)c(-c3ccccc3)s2)c1,100 to 102 °C
20,CC12CCC3C(C=CC4=CC(=O)CCC43CO)C1CCC2C(=O)CO (stereo not drawn),161 to 164 °C
21,COc1cc(/C=C/C(=O)CC(=O)c2ccc(I)cc2)ccc1O,139 to 141 °C
22,CC1(C)N=C(c2ccccc2F)c2cc(C#N)ccc2NC1=O,206 °C
23,CCCSC1(SCCC)CCC2C3CCC4=CC(=O)C=CC4(C)C3(F)C(O)CC21C (stereo not drawn),235 to 237 °C
24,COC(=O)CN(C1c2cc(Cl)ccc2OC(C)(C)C1O)S(C)(=O)=O (stereo not drawn),148 to 150 °C
25,CCC1CCC(NC(=O)NS(=O)(=O)c2ccc(CCNC(=O)N3CCC(C)CC3=O)cc2)CC1 (stereo not drawn),178 to 180 °C

row,Structure (SMILES),melting point
1,CC(=O)Oc1c(C)c(C)c2c(nc(COc3ccc(CC4SC(=O)NC4=O)cc3)n2C)c1C (stereo not drawn),250 to 253 °C
2,COc1ccc2c(c1)S(=O)(=O)c1c(cc(OC)c(OC(C)=O)c1Br)N2,258 to 260 °C
3,O=c1ccc(S(=O)(=O)n2cc(Cl)c3ccccc32)n[nH]1,> 220 °C
4,COc1ccc(-n2nnnc2C(F)(F)F)cc1[C@H]1CO[C@]2(CCCN(Cc3nc(=O)[nH][nH]3)[C@H]2c2ccccc2)C1,186 to 187 °C
5,CCC(N)C1CCN(c2c(F)cc3c(=O)c(C(=O)O)cn(C4CC4)c3c2F)C1 (stereo not drawn),177 to 179 °C
6,c1ccc(CSc2nc3cc4ccccc4cc3[nH]2)nc1,170 °C
7,CCN(c1nc(C)cc(C)n1)c1ccc(C(C)C)cc1S(C)(=O)=O,174 to 175 °C
8,CC(C)CNC(=O)CC1Sc2sc(S(N)(=O)=O)cc2NC1=O (stereo not drawn),> 250 °C
9,CCCc1nn(-c2ccc(C(F)(F)F)cn2)cc1CCCOc1cccc(OC(C)(C)C(=O)O)c1,99 to 100 °C
10,CN(C=O)c1cc(F)ccc1C(=O)CS(C)(=O)=O,94.5 to 95.5 °C
11,CC(=O)NC[C@H]1CN(c2ccc3c(c2)OCCCC3=O)C(=O)O1,123 to 128 °C
12,Cc1cc(Cl)nc(N(C=O)c2ccccc2)n1,150 to 152 °C
13,CCOC(=O)c1nc(C=Cc2cccc(C(F)(F)F)c2)oc1C,103 to 104 °C
14,CCOC(=O)c1cnn2c1c(S)nc1c(C)nn(C)c12,189 to 191 °C
15,Cc1ccccc1COc1cccnc1NC(=N)Nc1ccccc1,157 to 158 °C
16,COC(=O)CCn1c(=O)n2n(c1=O)C(C(=O)OC)C=CC2C(=O)OC (stereo not drawn),139 to 141 °C
17,O=C(O)c1ccc(-c2ccc3cc(OCc4ccccc4)c(C45CC6CC(CC(C6)C4)C5)cc3c2)s1,170 to 171 °C
18,COc1ccccc1Oc1cc2c(=O)c(NC=O)coc2cc1NS(C)(=O)=O,226 to 227 °C
19,O=C(Nc1nccs1)c1c(C(O)CO)nc2c(C(F)(F)F)cccc2c1O (stereo not drawn),255 °C
20,CCOCCn1c(C)c(C2(c3ccc(N(C)C)cc3C)OC(=O)c3ccccc32)c2ccccc21 (stereo not drawn),170 to 171 °C
21,CC1Cc2c(N)c(Cl)cc(C(=O)NCCC34CCCN3CCC4)c2O1 (stereo not drawn),127 to 129 °C
22,Clc1ccc(-c2cc(C3CCN(Cc4cccc(Cl)c4)CC3)n[nH]2)cc1,134 to 136 °C
23,Cn1ncc2c1-c1cc(Cl)ccc1OC2,80.5 to 81 °C
24,Cc1ccc2c3c(ccc2n1)OC[C@H](CN1CCN(c2cccc(Cl)c2)CC1)O3,110 to 112 °C
25,O=C(O)C(=NOc1ccccc1)c1ccccc1,105 °C

row,Structure (SMILES),melting point
1,CC(C)Oc1cccc(C2(C)CN(C)CCC2O)c1 (stereo not drawn),75 to 76 °C
2,COc1ccc(-c2nc(Cn3cncn3)nc3cc(OC)c(OC)cc23)cc1,206 to 207 °C
3,Clc1cccc(Oc2ncccc2Br)c1,88 to 90 °C
4,COc1cc2c(c3c1OC(C)(C)C3)C(c1ccc(NC(=O)c3cccnc3)cc1)=NC(C)(C)C2,130 to 137 °C
5,"CCCOC(C)c1ccc(-c2ccc(O)cc2)cc1 (single isomer, unassigned; (+))",123 to 125 °C
6,CCN1c2ncccc2C(N(C)C)=Nc2c(C)cc(C)nc21,150 to 152 °C
7,CNCc1nnc2n1-c1ccc(Cl)cc1C(c1ccccc1)=NC2,152 to 156 °C
8,CC(C)(C)OC(=O)N1CCNC(C(=O)O)C1 (stereo not drawn),226 to 229 °C
9,CC#Cc1cn(C2OC(COC(C)=O)C(OC(C)=O)C2OC(C)=O)c(=O)[nH]c1=O (stereo not drawn),150 to 157 °C
10,OC(CCl)COc1ccc2c(c1)OCC(c1ccccc1)C2 (stereo not drawn),74 to 76 °C
11,CCOC(=O)c1sc(Cl)nc1-c1ccccc1,56 to 57 °C
12,Cc1cc(-n2ncc(=O)[nH]c2=O)cc(Cl)c1C(C)(C#N)c1ccc(Cl)cc1 (stereo not drawn),227 °C
13,COc1ccc2cc(-c3nn(C)c4cc(OC)ccc34)ccc2c1,166 to 168 °C
14,Cc1cc(-c2ccc(Cl)cc2)nc(-n2cnc(-c3cccc(S(N)(=O)=O)c3)c2)n1,275 °C
15,CON=Cc1ncn2c1[C@@H]1CCN1C(=O)c1c(Cl)cccc1-2,199 to 200 °C
16,CC(C)c1c(C(=O)Nc2ccc(C(=O)O)cc2)c(-c2ccccc2)c(-c2ccc(F)cc2)n1CC[C@@H]1C[C@H](CC(=O)OC(C)(C)C)OC(C)(C)O1,240 to 242 °C
17,COc1ccc(OC)c2c(N=[N+]=[N-])ccnc12,106 °C
18,COc1cccc(OC)c1C(=O)Nc1ccc(OCCN2CCCCC2)cc1,114 to 118 °C
19,CCOC(=O)CCCOc1cccc(Oc2nc(OC)cc(OC)n2)c1C=O,96 °C
20,CCCOC(=O)NCCCC1(O)c2ccccc2C=Cc2c(C)cccc21 (stereo not drawn),157 to 159 °C
21,Cc1nc2c([nH]c(=O)c3ccccc32)s1,310 to 320 °C
22,Nc1nc(C2CCN(C(=O)c3ccccc3)CC2)c2ccccc2n1,138 °C
23,Cn1cc2c3c(cccc31)C(=O)NCC2,194 to 195 °C
